Test results from US20230312752A1 (Brown University, priority 2021, published 2023).
“Also recorded” adds a separate entry of the source. Structures can show the parent of a compound that is named as a salt. Where two headings read alike, the source gives them in different places.

Assays:
[1] = test system: influenza and other viral infections; details: cited from earlier work
TMPRSS2, CTSL and FURIN = assay type: cell-based, human
ERK and AKT = assay type: cell-based, human
Chitinase 1 (CHIT1) = Chitinase 1 (CHIT1) (Homo sapiens, UniProt Q13231); details: cited from earlier work
[2] = test system: pseudovirus with the ancestral G614 S protein; assay type: cell-based, SARS-CoV-2
[3] = test system: pseudovirus with the G614 S protein; assay type: cell-based, SARS-CoV-2
ACE2 [4] = assay type: cell-based, human
[5] = test system: pseudoviruses with delta S proteins; assay type: cell-based, SARS-CoV-2
ACE2, TMPRSS2, and CTSL [6] = experiment: mRNA levels in normal human small airway epithelial cells (qRT-PCR); assay type: cell-based; details: normal HSAEC, rhCHI3L1 500 ng/mL, 24 hours
Method: HSAEC were incubated with the noted concentrations of recombinant rhCHI3L1 for 24 hours. The levels of mRNA encoding ACE2, TMPRSS2, and CTSL were assessed via qRT-PCR. The levels are expressed in relationship to GAPDH controls. *p<0.05 (Student's t-test).
(§1) Total cellular RNA was obtained using TRIzol reagent (ThermoFisher Scientific) followed by RNA extraction using RNeasy Mini Kit (Qiagen, Germantown, MD) according to the manufacturer's instructions. mRNA was measured and used for real time (RT)-PCR as described previously.^79,80 The primer sequences used in these studies are summarized in Table 1. Ct values of the test genes were normalized to the internal housekeeping gene β-actin.
In the present study, normal HSAEC were incubated with 0, 100 ng/mL, or 500 ng/mL of rhCHI3L1 for 24 hours at 37° C. The levels of mRNA encoding ACE2, TMPRSS2, and CTSL were assessed via qRT-PCR and expressed in relationship to GAPDH controls.

ACE2 [7] = experiment: Immunocytochemical evaluation of ACE2 in Calu-3 cells; assay type: cell-based, human
ACE2, TMPRSS2, and CTSL [8] = experiment: mRNA levels in A549 cells (qRT-PCR); assay type: cell-based, human; details: 24 hr
Method: Cells were incubated with rhCHI3L1 from a commercial source (R&D Inc.) and rhCHI3L1 generated at Brown University (Brown) and compared to vehicle controls. mRNA was then extracted and the levels of mRNA for ACE2 and CTSL were evaluated by real time qRT-PCR. Levels were expressed in relationship to GAPDH controls. *p<0.05; **p<0.01 (Student's t-test).
A549 cells were incubated with the noted concentrations of rhCHI3L1 for the note amounts of time. The levels of mRNA encoding ACE2, TMPRSS2, and CTSL were assessed via qRT-PCR. The statistics compare cells incubated with vehicle control (nothing tested, NT) and cells incubated with 250 ng/ml of rhCHI3L1. […]
as §1, with “Ct values of the test genes were normalized to the internal housekeeping gene β-actin.” left out
In the first study, A549 cells were incubated with rhCHI3L1 from a commercial source (R&D Inc.) and rhCHI3L1 generated at Brown University (Brown). The cells were incubated for 24 hr with stimulation of rhCHI3L1 (500 ng/mL) at 37° C. mRNA was then extracted and the levels of mRNA for ACE2 and CTSL were evaluated by real time qRT-PCR and compared to vehicle controls. […]

[9] = test system: pseudovirus containing the S protein (D614 and G614 variants); assay type: cell-based; details: Calu-3 cells
CDK1 = CDK1 (Homo sapiens, UniProt P06493); details: cited from earlier work
CDK7 = CDK7 (Homo sapiens, UniProt P50613); details: cited from earlier work
CDK3 = CDK3 (Homo sapiens, UniProt Q00526); details: cited from earlier work
CDK6 = CDK6 (Homo sapiens, UniProt Q00534); design: key to the marks not given beside the values; details: cited from earlier work
CDK2 = CDK2 (Homo sapiens, UniProt P24941); details: cited from earlier work
CDK4 = CDK4 (Homo sapiens, UniProt P11802); details: cited from earlier work
CDK8 = CDK8 (Homo sapiens, UniProt P49336); design: key: + is used to indicate the potency of the inhibitor; ++++ > +++ > ++ > +; + is used to indicate the potency of the inhibitor; ++++ > +++ > ++ > +; + is used to indicate the potency of the inhibitor; ++++ > +++ > ++ > +; + is used to indicate the potency of the inhibitor; ++++ > +++ > ++ > +; ◯ refers to compounds with inhibitory effects on the related isoform, but without specific value; details: cited from earlier work
CDK9 = CDK9 (Homo sapiens, UniProt P50750); design: key: + is used to indicate the potency of the inhibitor; ++++ > +++ > ++ > +; + is used to indicate the potency of the inhibitor; ++++ > +++ > ++ > +; + is used to indicate the potency of the inhibitor; ++++ > +++ > ++ > +; + is used to indicate the potency of the inhibitor; ++++ > +++ > ++ > +; ◯ refers to compounds with inhibitory effects on the related isoform, but without specific value; details: cited from earlier work
human and mouse CHI3L1 = experiment: Ligand binding affinity of FRG by ELISA; details: both human and mouse CHI3L1
Method: The murine monoclonal anti-CHI3L1 antibody (FRG) was generated using peptide antigen (amino acid 223-234 of human CHI3L1) as immunogen through Abmart Inc (Berkeley Heights, NJ). […] HEK-293T cells were transfected with the FRG construct using Lipofectamine™ 3000 (Invitrogen, #L3000015). Supernatant was collected for 7 days, and the antibody was purified using a protein A column (ThermoFisher scientific, #89960). Ligand binding affinity and sensitivity were assessed using ELISA techniques.

[10] = Calu-3 cells, rhCHI3L1 250 ng/mL, 24 hours, vs vehicle
[11] = Calu-3 cells, 24 hours, FRG or KSM 250 ng/mL, RT-PCR

Chain of CDK7 (P50613 whole entry): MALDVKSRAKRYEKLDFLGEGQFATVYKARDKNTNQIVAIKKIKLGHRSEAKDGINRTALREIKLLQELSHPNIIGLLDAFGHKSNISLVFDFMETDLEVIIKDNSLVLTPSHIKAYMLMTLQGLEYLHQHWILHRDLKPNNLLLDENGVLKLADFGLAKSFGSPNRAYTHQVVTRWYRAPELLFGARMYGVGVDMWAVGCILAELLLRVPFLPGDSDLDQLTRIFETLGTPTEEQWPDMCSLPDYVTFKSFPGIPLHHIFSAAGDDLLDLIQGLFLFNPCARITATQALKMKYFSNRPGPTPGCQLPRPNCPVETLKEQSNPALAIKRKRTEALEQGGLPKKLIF
Chain of CDK7 (P51946 whole entry, further chain): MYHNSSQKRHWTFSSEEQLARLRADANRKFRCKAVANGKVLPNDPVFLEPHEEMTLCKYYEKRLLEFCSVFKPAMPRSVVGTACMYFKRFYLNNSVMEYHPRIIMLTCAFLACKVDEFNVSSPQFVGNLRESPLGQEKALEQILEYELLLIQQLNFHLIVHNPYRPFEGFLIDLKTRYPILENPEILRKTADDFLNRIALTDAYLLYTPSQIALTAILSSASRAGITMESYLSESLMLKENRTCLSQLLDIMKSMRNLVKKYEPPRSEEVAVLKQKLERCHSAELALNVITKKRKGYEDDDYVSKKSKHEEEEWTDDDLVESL
Chain of CDK7 (P51948 whole entry, further chain): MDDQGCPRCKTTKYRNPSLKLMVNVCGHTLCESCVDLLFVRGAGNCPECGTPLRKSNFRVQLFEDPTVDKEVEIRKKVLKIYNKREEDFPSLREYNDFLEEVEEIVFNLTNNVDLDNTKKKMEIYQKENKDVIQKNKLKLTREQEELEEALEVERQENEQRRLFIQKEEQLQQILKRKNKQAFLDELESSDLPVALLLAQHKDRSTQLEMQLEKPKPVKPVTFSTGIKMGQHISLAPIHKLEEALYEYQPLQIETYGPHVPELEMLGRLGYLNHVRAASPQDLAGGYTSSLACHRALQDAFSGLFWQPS
Chain of CDK1 (P06493 whole entry, species assumed): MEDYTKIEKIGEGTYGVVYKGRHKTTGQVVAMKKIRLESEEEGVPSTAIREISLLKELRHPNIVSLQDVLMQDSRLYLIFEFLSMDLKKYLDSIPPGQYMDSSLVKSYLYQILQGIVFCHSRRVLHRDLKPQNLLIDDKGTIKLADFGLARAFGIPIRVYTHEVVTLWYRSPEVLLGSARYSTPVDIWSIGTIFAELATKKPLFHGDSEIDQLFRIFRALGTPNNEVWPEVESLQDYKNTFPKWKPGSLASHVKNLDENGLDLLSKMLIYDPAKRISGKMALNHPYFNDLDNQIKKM
Chain of CDK1 (P14635 whole entry partner, species assumed): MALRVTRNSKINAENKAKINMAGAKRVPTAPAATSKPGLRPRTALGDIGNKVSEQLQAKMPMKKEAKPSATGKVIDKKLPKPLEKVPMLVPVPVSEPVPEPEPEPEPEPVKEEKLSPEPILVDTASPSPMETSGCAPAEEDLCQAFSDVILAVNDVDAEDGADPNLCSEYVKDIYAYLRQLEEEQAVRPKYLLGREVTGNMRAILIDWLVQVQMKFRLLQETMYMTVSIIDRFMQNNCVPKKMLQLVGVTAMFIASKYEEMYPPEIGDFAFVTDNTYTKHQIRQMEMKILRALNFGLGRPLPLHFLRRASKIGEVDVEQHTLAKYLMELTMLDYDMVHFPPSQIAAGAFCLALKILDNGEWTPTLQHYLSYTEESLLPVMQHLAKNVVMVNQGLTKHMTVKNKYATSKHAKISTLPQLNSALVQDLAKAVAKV
Chain of Chitinase 1 (CHIT1) (Q13231 22-466): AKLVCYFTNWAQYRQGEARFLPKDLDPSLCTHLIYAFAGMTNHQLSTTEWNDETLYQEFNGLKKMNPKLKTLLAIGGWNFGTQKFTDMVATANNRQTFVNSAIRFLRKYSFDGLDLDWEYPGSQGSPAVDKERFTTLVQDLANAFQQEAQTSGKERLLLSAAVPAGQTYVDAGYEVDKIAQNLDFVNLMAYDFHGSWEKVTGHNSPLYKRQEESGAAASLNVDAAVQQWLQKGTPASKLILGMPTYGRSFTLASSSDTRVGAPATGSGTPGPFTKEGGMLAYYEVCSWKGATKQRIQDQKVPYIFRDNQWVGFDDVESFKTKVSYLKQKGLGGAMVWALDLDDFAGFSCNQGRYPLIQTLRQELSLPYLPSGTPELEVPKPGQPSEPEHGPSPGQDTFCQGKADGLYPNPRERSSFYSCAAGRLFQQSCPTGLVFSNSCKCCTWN
Chain of CDK9 (P50750 whole entry, canonical isoform): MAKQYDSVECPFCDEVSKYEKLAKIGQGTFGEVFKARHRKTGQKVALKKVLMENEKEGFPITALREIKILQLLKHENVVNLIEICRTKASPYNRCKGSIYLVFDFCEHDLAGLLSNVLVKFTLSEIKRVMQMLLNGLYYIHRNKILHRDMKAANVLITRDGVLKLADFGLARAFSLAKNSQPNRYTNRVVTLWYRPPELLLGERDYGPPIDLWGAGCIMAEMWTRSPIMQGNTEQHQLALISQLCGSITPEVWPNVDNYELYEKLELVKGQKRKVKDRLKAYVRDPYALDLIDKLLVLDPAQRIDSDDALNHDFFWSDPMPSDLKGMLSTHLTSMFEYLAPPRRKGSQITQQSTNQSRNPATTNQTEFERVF
Chain of CDK9 (O60563 whole entry, further chain, canonical isoform): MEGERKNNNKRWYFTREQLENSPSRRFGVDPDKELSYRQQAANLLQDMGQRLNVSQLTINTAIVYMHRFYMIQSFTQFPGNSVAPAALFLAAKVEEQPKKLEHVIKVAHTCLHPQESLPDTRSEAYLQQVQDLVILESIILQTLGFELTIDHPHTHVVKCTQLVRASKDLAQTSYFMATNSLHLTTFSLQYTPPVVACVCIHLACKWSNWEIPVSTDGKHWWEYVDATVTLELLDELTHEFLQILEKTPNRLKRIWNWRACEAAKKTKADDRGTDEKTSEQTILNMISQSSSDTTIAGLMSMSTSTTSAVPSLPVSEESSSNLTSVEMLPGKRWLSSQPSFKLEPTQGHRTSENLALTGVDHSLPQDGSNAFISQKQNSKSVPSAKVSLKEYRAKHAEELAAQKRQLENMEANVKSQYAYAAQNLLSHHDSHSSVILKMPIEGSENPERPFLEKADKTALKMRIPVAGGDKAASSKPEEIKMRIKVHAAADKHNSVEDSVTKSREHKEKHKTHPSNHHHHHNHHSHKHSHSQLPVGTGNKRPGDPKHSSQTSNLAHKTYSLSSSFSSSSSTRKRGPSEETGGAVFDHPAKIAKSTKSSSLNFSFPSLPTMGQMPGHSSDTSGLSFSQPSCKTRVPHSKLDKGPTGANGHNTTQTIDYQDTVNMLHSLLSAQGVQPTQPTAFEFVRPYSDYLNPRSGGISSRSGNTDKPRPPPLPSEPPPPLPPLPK
Chain of CDK4 (P11802 whole entry, species assumed, canonical isoform): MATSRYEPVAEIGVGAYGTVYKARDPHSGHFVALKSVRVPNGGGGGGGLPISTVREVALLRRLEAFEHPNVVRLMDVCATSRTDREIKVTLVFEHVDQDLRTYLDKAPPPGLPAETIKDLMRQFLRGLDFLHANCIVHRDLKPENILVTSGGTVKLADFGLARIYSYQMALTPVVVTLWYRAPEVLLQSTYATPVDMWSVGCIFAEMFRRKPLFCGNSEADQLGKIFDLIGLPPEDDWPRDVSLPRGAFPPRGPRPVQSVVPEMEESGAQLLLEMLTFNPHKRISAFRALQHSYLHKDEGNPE
Chain of CDK4 (P24385 whole entry partner, species assumed, canonical isoform): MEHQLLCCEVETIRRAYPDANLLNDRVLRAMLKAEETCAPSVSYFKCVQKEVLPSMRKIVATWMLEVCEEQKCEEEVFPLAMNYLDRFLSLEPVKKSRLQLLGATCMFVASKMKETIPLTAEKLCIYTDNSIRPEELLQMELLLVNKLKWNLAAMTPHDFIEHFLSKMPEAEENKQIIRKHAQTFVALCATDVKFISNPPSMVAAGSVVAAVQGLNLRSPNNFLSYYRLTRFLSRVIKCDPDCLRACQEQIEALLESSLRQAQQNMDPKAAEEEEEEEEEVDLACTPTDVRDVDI
Chain of CDK8 (P24863 whole entry, canonical isoform): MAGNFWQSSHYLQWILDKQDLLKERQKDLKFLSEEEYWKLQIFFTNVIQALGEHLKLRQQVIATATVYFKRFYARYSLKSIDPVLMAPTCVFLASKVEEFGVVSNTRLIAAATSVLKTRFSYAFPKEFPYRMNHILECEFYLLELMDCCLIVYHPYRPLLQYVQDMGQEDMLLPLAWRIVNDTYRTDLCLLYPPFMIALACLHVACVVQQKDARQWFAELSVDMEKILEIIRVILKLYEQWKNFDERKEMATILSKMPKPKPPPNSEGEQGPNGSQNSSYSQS
Chain of CDK8 (P49336 whole entry, canonical isoform): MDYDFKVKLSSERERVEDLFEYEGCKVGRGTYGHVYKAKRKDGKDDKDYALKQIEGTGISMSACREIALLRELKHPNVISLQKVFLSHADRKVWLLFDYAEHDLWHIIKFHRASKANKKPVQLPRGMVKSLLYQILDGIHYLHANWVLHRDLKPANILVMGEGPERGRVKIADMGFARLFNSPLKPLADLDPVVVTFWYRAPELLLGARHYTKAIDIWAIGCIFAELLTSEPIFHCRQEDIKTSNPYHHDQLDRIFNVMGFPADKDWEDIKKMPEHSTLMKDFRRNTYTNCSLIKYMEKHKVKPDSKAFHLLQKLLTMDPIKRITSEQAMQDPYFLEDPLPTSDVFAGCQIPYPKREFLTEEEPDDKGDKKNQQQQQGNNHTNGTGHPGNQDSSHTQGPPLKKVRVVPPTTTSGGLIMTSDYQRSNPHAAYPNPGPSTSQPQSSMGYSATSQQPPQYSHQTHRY

## C[C@H]1O[C@H](O[C@H]2[C@H](O)[C@@H](O)[C@@H](O)[C@H](O)[C@@H]2O)[C@@H](N)C[C@@H]1NC(=N)C(=O)O [Kasugamycin, 2-amino-2-[(2R,3S,5S,6R)-5-amino-2-methyl-6-[(2R,3S,5S,6S)-2,3,4,5,6-pentahydroxycyclohexyl]oxyoxan-3-yl]iminoacetic acid]
[1]
  influenza and other viral infections: inhibit
TMPRSS2, CTSL and FURIN
  basal and rhCHI3L1-stimulated expression of TMPRSS2, CTSL and FURIN: potently decreased
ERK and AKT
  CHI3L1 stimulated MAPK and AKT activation: abrogated
Chitinase 1 (CHIT1)
  anti-Chitinase 1 (CHIT1) activities: strong
[2]
  rCHI3L1-augmented pseudovirus uptake: abrogated
[3]
  pseudovirus uptake when exogenous CHI3L1 was not administered: diminished
ACE2 [4]
  ability of rhCHI3L1 to stimulate ACE2 mRNA accumulation: potently inhibited; also recorded: potently ameliorated
  levels of basal ACE2 expression: diminished

## rhCHI3L1: recombinant human CHI3L1 (chitinase 3 like 1) protein, from R&D Inc. or generated at Brown University
TMPRSS2, CTSL and FURIN; [10]
  levels of mRNA encoding TMPRSS2, CTSL and FURIN: significantly upregulated
[5]
  delta pseudovirus infection: augmented
ACE2, TMPRSS2, and CTSL [6]
  levels of mRNA encoding ACE2, TMPRSS2, and CTSL: significantly upregulated
ACE2 [7]; CHI3L1 250 ng/mL, double labeled ICC
  Calu-3 cell ACE2 accumulation: augmented
[2]
  uptake of pseudovirus: potent stimulator
ACE2, TMPRSS2, and CTSL [8]; rhCHI3L1 500 ng/mL, 37° C.
  levels of mRNA encoding Ace2 and cathepsin L (CTSL): significantly upregulated
ACE2, TMPRSS2, and CTSL [8]; rhCHI3L1 250 or 500 ng/mL
  levels of mRNA encoding ACE2, TMPRSS2, and CTSL: significantly upregulated
[9]; rCHI3L1 24 hours, GFP
  cellular integration of S proteins: stimulated
ACE2 [4]; [10]
  levels of mRNA encoding ACE2: significantly upregulated

## CN1CC[C@H](c2c(O)cc(O)c3c(=O)cc(-c4ccccc4Cl)oc23)[C@H](O)C1 [Flavopiridol HCl, Flavopiridol Hydrochloride]
CDK1
  Inhibitory potency CDK1: +++
CDK7
  Inhibitory potency CDK7: +
CDK3
  Inhibitory potency CDK3: +
CDK6
  Inhibitory potency CDK6: +++
CDK2
  Inhibitory potency CDK2: +++
CDK4
  Inhibitory potency CDK4: +++

## LY2857785
CDK8
  Inhibitory potency CDK8: +++
CDK7
  Inhibitory potency CDK7: +
CDK9
  Inhibitory potency CDK9: +++

B1: FRG: murine monoclonal anti-CHI3L1 antibody raised against amino acid 223-234 of human CHI3L1; heavy chain SEQ ID NO: 13, light chain SEQ ID NO: 14 (antibody, V domains shown)
VH: QIQLVQSGPELKKPGETVKISCKASGYTFTNYGMNWVKQAPGKGLKWMGWINTYTGEPTYADDFKGRFAFSLETSASTAYLQINNLRNEDMSTYFCARLGYGKFYVMDYWGQGTSVTVSS
VL: DVVMTQTPLSLPVSLGDQASISCRSSQSLVHSNGNTYLHWYLQKPGQSPKLLIYKVSNRFSGVPDRFSGSGSGTDFTLKISRVEAEDLGVYFCSQSTHVTWTFGGGTKLEIK
TMPRSS2, CTSL and FURIN; [11]
  basal and rhCHI3L1-stimulated expression of TMPRSS2, CTSL and FURIN: potently decreased
[5]
  delta pseudovirus infection: abrogated
ACE2 [7]; at baseline and or after the administration of rCHI3L1, ICC, FIG. 18
  expression of ACE2: abrogated
Human and mouse CHI3L1
  Kd: ~1.1 nM
[2]
  pseudovirus uptake when exogenous rCHI3L1 was not administered: diminished
  rCHI3L1-augmented pseudovirus uptake: abrogated
[3]
  pseudovirus uptake when exogenous CHI3L1 was not administered: diminished
[9]; rCHI3L1 250 ng/mL 24 hours, GFP by flow cytometry
  CHI3L1 effect on cellular integration of S proteins: abrogated
ACE2 [4]; [11]
  levels of basal ACE2 expression: modestly diminished
ACE2 [4]; Calu-3 cells, rhCHI3L1 24 hours, FRG or KSM 250 ng/mL, RT-PCR
  ability of rhCHI3L1 to stimulate ACE2 mRNA accumulation: potently inhibited; also recorded: potently ameliorated
